Reference: patent US20220155314A1, “TROPHOBLAST STEM CELL, METHODS OF PREPARATION AND USES THEREOF” (Academia Sinica, priority 2020, published 2022)
Residues, ends and D or L forms follow the SMILES beside them. *: point of attachment. Cbz = O=C(OCc1ccccc1)*

Key:
[1] = test system: ΔNp63α; experiment: ΔNp63α stability in JEG3 cells (FSK with or without MG132); format: cell-based, human; settings: 50 μM FSK 24 h in presence of MG132 (FIG. 3F)
Method: FIGS. 3A to 3I show reciprocal regulation of GCM1 and ΔNp63α activities in trophoblast differentiation. […] Scramble control, ΔNp63α-knockdown or GCM1-knockdown JEG3 cells were treated with or without 50 μM FSK for 24 h and then harvested for immunoblotting and quantitative RT-PCR analyses of SYN1, hCGβ, HTRA4 proteins or transcripts. Arrowhead denotes a non-specific band recognized by ΔNp63α Ab. […] Scramble control and ΔNp63α knockdown JEG3 cells were treated with or without 50 μM FSK for 48 h, followed by immunofluorescence microscopy with E-cadherin Ab. Syncytial margins are marked with stippled line. Cell fusion was quantified by fusion index. […] Mock and ΔNp63α-FLAG-expressing BeWo cells or scramble control and ΔNp63α-knockdown JEG3 cells were subjected to immunoblotting and quantitative RT-PCR analyses of RACK1 and GATA3 proteins or transcripts. […] Scramble control or ΔNp63α-knockdown JEG3 cells were transfected with pHTRA4-1 Kb with or without pGATA3-FLAG for 48 h, followed by luciferase assays. […] WT and GCM1-KO JEG3 cells were treated with or without 50 μM FSK for 24 hours and then harvested for immunoblotting and quantitative RT-PCR analyses of GCM1, ΔNp63α, hCGβ proteins and transcripts. […] Quantitation of band intensity was performed by densitometry analysis, and the relative ΔNp63α protein level was normalized by β-actin. […]

[2] = test system: BeWo cells; experiment: Expression of trophoblast stemness and differentiation genes in BeWo cells treated with EGF and chemical inhibitors; format: cell-based, human; settings: 1 mM VPA with 20 μM MG132, 8 h (FIG. 6G)
Method: FIGS. 6A to 6I show the regulation of trophoblast stemness and differentiation by antagonism between ΔNp63α and GCM1. […] ITGA6-positive term CTBs were cultured in complete TS medium for 5 days and then maintained in the same medium or incomplete medium (vehicle alone without EGF and chemical inhibitors) for an additional 7 days. Cells were subjected to immunofluorescence microscopy of ΔNp63α, GCM1, and hCGβ. […] BeWo cells were incubated in complete or incomplete TS medium supplemented with the indicated growth factor or chemical inhibitor(s) for 24 h. Cells were harvested for quantitative RT-PCR analysis of the indicated stemness or differentiation genes. […] BeWo cells were treated with the indicated concentration of VPA for 24 hours and then harvested for immunoblotting and quantitative RT-PCR analyses of GCM1, ΔNp63α, and hCGβ. […] BeWo cells were transfected with 4XCSL-luciferase in the presence or absence of 2 mM VPA for 48 hours, followed by luciferase assays. […] 293T cells were transfected with pHA-GCM1 and pNotch1IC-FLAG for 48 hours, followed by coimmunoprecipitation analysis and confocal microscopy using FLAG and HA mAbs and GCM1 Ab. […] EGFP-positive mock or Notch1IC-FLAG-expressing BeWo cells were treated with or without 50 μM FSK for 24 h, followed by immunoblotting and quantitative RT-PCR analyses of GCM1, hCGβ or HTRA4. […] BeWo cells were treated with or without 1 mM VPA in the presence or absence of 20 μM MG132 for 8 h and then subjected to immunoblotting analysis of GCM1 and Notch1IC. […] The EGFP-positive mock or Notch1IC-FLAG-expressing BeWo cells were transfected with the GCM1 promoter reporter plasmid E1bLUCGCM1-2K for 48 h and then subjected to luciferase assays. […] BeWo cells and ITGA6-positive term CTBs were cultured under normoxic or hypoxic conditions for 72 h and 7 days, respectively. Cells were then harvested for quantitative RT-PCR analysis of GCM1, ΔNp63α, HTRA4, hCGβ, and MKI67. Means and standard deviations obtained from three independent experiments are presented.
To study the effect of EGF and chemical inhibitors on trophoblast differentiation, BeWo cells were cultured in the complete TS medium or in the incomplete TS medium with EGF alone or the indicated chemical inhibitor(s) for 24 h. Cells were then harvested for quantitative RT-PCR or immunoblotting analysis of expression of ΔNp63α, eomesodermin (EOMES), E74-like factor 5 (ELF5) or GCM1 and its target genes.

CC(C)C[C@@H](C=O)NC(=O)[C@H](CC(C)C)NC(=O)[C@H](CC(C)C)NC(=O)OCc1ccccc1 [MG132] (Cbz-Leu-Leu-Leu-aldehyde)
suppressive effect of FSK on ΔNp63α expression [1]: counteracted | VPA-mediated downregulation of GCM1 expression [2]: compromised
